Measurements from ChEMBL document CHEMBL1795217, “New vasorelaxant indole alkaloids, villocarines A-D from Uncaria villosa” (Bioorg Med Chem, 2011).
Active and inactive are the calls of the source.

How the values were obtained:
Aorta [1] = assay: Vasorelaxant activity in endothelium denuded Wistar rat thoracic aortic rings assessed as inhibition of calcium-induced contraction at 30 uM in presence of Ca2+-free K+-rich medium; type: functional, tissue-based
Aorta [2] = assay: Vasorelaxant activity in endothelium denuded Wistar rat thoracic aortic rings assessed as inhibition of phenylephrine-induced contraction at 30 uM in presence of Ca2+-free medium pre-incubated with 1 uM phenylephrine abd 1 uM nicardipine
Aorta [3] = assay: Vasorelaxant activity in Wistar rat thoracic aortic rings with endothelium assessed as inhibition of phenylephrine-induced contraction at 30 uM measured 10 to 30 mins within compound dosing; type: functional, tissue-based
Aorta [4] = assay: Vasorelaxant activity in endothelium denuded Wistar rat thoracic aortic rings assessed as inhibition of phenylephrine-induced contraction at 30 uM; type: functional, tissue-based

Measured: Activity

C/C=C1/CN2CCc3c([nH]c4ccccc34)[C@H]2C[C@@H]1/C(=C\OC)C(=O)OC
active: Aorta [1] | Aorta [2] | Aorta [3] | Aorta [4]
